Laboratory results published in patent US11596639B2, “Substituted indole Mcl-1 inhibitors” (Vanderbilt University, priority 2016, dated 2023).
Like-named read-outs stand apart in the source and are kept apart here.

Columns and labels:
[1] = test system: H929 human cancer cell lines; experiment: Cellular viability / proliferation (Cell TiterGlo, 72 h); assay type: cell-based
How it was run: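 Top dose 50 μM, serially diluted 2-fold, applied one day after seeding (1,000 cells/well, 10% FBS), DMSO below 1%.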

[2] = target: Mcl-1 (Homo sapiens (Human), UniProt Q07820); experiment: TR-FRET binding assay, FITC-Bak peptide and MBP-tagged Mcl-1; details: read-out: Ki for Inhibition of Mcl-1 by TR-FRET assay
Method: Compounds are diluted in DMSO in a 16-point, semilog serial dilution scheme. […] The plate was mixed and incubated for 3 hours at room temperature. […] TR-FRET signal is plotted and IC50 and Ki values are calculated in the same manner as the fluorescence polarization anisotropy based competition assays.

[3] = Homo sapiens, NCI-H929, 72 h, read-out: GI50 on cellular proliferation of H929 human cancer cell lines, H929 cells, 72 h, Cell TiterGlo, 10% FBS

Mcl-1, sequence (Q07820 172-327): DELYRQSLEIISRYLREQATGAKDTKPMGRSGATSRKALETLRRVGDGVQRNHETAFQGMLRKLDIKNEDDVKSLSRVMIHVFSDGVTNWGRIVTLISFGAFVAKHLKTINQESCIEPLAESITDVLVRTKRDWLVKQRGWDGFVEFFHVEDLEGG

Compound | GI50 [1, 3] [nM] | Ki [2] [nM] | GI50 ([1]; H929 cells, 72 h, Cell TiterGlo, 10% FBS, read-out: GI50 on cellular proliferation of H929 human cancer cell lines) [nM]
COc1ccc(N2C[C@@H](C)n3c(c(CCCOc4cc(C)c(Cl)c(C)c4)c4ccc(Cl)c(-c5c(C)ncnc5C)c43)C2=O)c2c1cc(C(=O)O)n2Cc1cccc(C)n1 [Example 477, (R)-7-(7-Chloro-10-(3-(4-chloro-3,5-dimethylphenoxy)propyl)-6-(4,6-dimethylpyrimidin-5-yl)-4-methyl-1-oxo-3,4-dihydropyrazino[1,2-a]indol-2(1H)-yl)-4-methoxy-1-((6-methylpyridin-2-yl)methyl)-1H-indole-2-carboxylic acid] | < 200 | < 0.2 | –
Cc1cc(OCCCc2c3n(c4c(-c5c(C)nn(C)c5C)c(Cl)ccc24)[C@H](C)CN(c2cn(CC(=O)N4CCOCC4)c4ccc(-c5ncn(C)n5)cc24)C3=O)cc(C)c1Cl [Example 525, (R)-7-Chloro-10-(3-(4-chloro-3,5-dimethylphenoxy)propyl)-4-methyl-2-(5-(1-methyl-1H-1,2,4-triazol-3-yl)-1-(2-morpholino-2-oxoethyl)-1H-indol-3-yl)-6-(1,3,5-trimethyl-1H-pyrazol-4-yl)-3,4-dihydropyrazino[1,2-a]indol-1(2H)-one] | 330 | 0.41 | –
COc1ccc(N2C[C@@H](C)n3c(c(CCCOc4cc(C)c(Cl)c(C)c4)c4ccc(Cl)c(-c5c(C)nn(C)c5C)c43)C2=O)c2c1c(C(=O)O)cn2Cc1ccccn1 [Example 617, (R)-7-(7-chloro-10-(3-(4-chloro-3,5-dimethylphenoxy)propyl)-4-methyl-1-oxo-6-(1,3,5-trimethyl-1H-pyrazol-4-yl)-3,4-dihydropyrazino[1,2-a]indol-2(1H)-yl)-4-methoxy-1-(pyridin-2-ylmethyl)-1H-indole-3-carboxylic acid] | 440 | < 0.2 | –
Cc1cc(OCCCc2c3n(c4c(-c5c(C)nn(C)c5C)c(Cl)ccc24)[C@H](C)CN(c2cn(CC4CCN(C)C4)c4ccc(C(=O)O)cc24)C3=O)cc(C)c1Cl (stereo partly drawn) [Example 534, 3-((R)-7-Chloro-10-(3-(4-chloro-3,5-dimethylphenoxy)propyl)-4-methyl-1-oxo-6-(1,3,5-trimethyl-1H-pyrazol-4-yl)-3,4-dihydropyrazino[1,2-a]indol-2(1H)-yl)-1-((1-methylpyrrolidin-3-yl)methyl)-1H-indole-5-carboxylic acid] | 520 | < 0.2 | –
Cc1cc(OCCCc2c3n(c4c(-c5c(C)nn(C)c5C)c(Cl)ccc24)[C@H](C)CN(c2cc(OCC4CC4)cc4cc(C(=O)O)n(C)c24)C3=O)cc(C)c1Cl [Example 485, (R)-7-(7-Chloro-10-(3-(4-chloro-3,5-dimethylphenoxy)propyl)-4-methyl-1-oxo-6-(1,3,5-trimethyl-1H-pyrazol-4-yl)-3,4-dihydropyrazino[1,2-a]indol-2(1H)-yl)-5-(cyclopropylmethoxy)-1-methyl-1H-indole-2-carboxylic acid] | 410 | 0.35 | –
Cc1cc(OCCCc2c3n(c4c(-c5c(C)nn(C)c5C)c(Cl)ccc24)[C@H](C)CN(c2cc(OCc4ccccc4)cc4cc(C(=O)O)n(Cc5ccccn5)c24)C3=O)cc(C)c1Cl [Example 588, (R)-5-(benzyloxy)-7-(7-chloro-10-(3-(4-chloro-3,5-dimethylphenoxy)propyl)-4-methyl-1-oxo-6-(1,3,5-trimethyl-1H-pyrazol-4-yl)-3,4-dihydropyrazino[1,2-a]indol-2(1H)-yl)-1-(pyridin-2-ylmethyl)-1H-indole-2-carboxylic acid] | 1400 | 1.4 | –
(R)-7-Chloro-10-(3-(4-chloro-3,5-dimethylphenoxy)propyl)-4-methyl-2-(5-(1-methyl-1H-1,2,4-triazol-3-yl)-1-(2-morpholinoethyl)-1H-indol-3-yl)-4-(1,3,5-trimethyl-1H-pyrazol-4-yl)-3,4-dihydropyrazino[1,2-a]indol-1(2H)-one [Example 583] | – | 0.73 | < 200
COCCn1cc(C(=O)O)c2cccc(N3C[C@@H](C)n4c(c(CCCOc5cc(C)c(Cl)c(C)c5)c5ccc(Cl)c(-c6c(C)nn(C)c6C)c54)C3=O)c21 [Example 512, (R)-7-(7-Chloro-10-(3-(4-chloro-3,5-dimethylphenoxy)propyl)-4-methyl-1-oxo-6-(1,3,5-trimethyl-1H-pyrazol-4-yl)-3,4-dihydropyrazino[1,2-a]indol-2(1H)-yl)-1-(2-methoxyethyl)-1H-indole-3-carboxylic acid] | 220 | < 0.2 | –
Cc1cc(OCCCc2c3n(c4c(-c5c(C)ncnc5C)c(Cl)ccc24)[C@H](C)CN(c2cn(C)c4ncc(C(=O)O)nc24)C3=O)cc(C)c1Cl [Example 644, (R)-7-(7-chloro-10(3-(4-chloro-3,5-dimethylphenoxy)propyl)-6-(4,6-dimethylpyrimidin-5-yl)-4-methyl-1-oxo-3,4-dihydropyrazino[1,2-a]indol-2(1H)-yl)-5-methyl-5H-pyrrolo[2,3-b]pyrazine-2-carboxylic acid] | 1900 | < 0.2 | –
Cc1cc(OCCCc2c3n(c4c(-c5c(C)nn(C)c5C)c(Cl)ccc24)[C@H](C)CN(c2cn(CC(N)=O)c4ccc(C(=O)O)cc24)C3=O)cc(C)c1Cl [Example 620, (R)-1-(2-amino-2-oxoethyl)-3-(7-chloro-10-(3-(4-chloro-3,5-dimethylphenoxy)propyl)-4-methyl-1-oxo-6-(1,3,5-trimethyl-1H-pyrazol-4-yl)-3,4-dihydropyrazino[1,2-a]indol-2(1H)-yl)-1H-indole-5-carboxylic acid] | 7600 | < 0.2 | –
COCCn1c(C(=O)O)cc2c(OC)ccc(N3C[C@@H](C)n4c(c(CCCOc5cc(C)c(Cl)c(C)c5)c5ccc(Cl)c(-c6c(C)ncnc6C)c54)C3=O)c21 [Example 493, (R)-7-(7-chloro-10-(3-(4-chloro-3,5-dimethylphenoxy)propyl)-6-(4,6-dimethylpyrimidin-5-yl)-4-methyl-1-oxo-3,4-dihydropyrazino[1,2-a]indol-2(1H)-yl)-4-methoxy-1-(2-methoxyethyl)-1H-indole-2-carboxylic acid] | < 200 | < 0.2 | –
Cc1cc(N2C[C@@H](C)n3c(c(CCCOc4cc(C)c(Cl)c(C)c4)c4ccc(Cl)c(-c5c(C)nn(C)c5C)c43)C2=O)c2c(c1)cc(C(=O)O)n2Cc1cc(C2=NCCO2)ccn1 [Example 600, (R)-7-(7-chloro-10-(3-(4-chloro-3,5-dimethylphenoxy)propyl)-4-methyl-1-oxo-6-(1,3,5-trimethyl-1H-pyrazol-4-yl)-3,4-dihydropyrazino[1,2-a]indol-2(1H)-yl)-1-((4-(4,5-dihydrooxazol-2-yl)pyridin-2-yl)methyl)-5-methyl-1H-indole-2-carboxylic acid] | 2500 | < 0.2 | –
COCCOCCOc1cc(N2C[C@@H](C)n3c(c(CCCOc4cc(C)c(Cl)c(C)c4)c4ccc(Cl)c(-c5c(C)ncnc5C)c43)C2=O)c2c(c1)cc(C(=O)O)n2C [Example 631, (R)-7-(7-chloro-10-(3-(4-chloro-3,5-dimethylphenoxy)propyl)-6-(4,6-dimethylpyrimidin-5-yl)-4-methyl-1-oxo-3,4-dihydropyrazino[1,2-a]indol-2(1H)-yl)-5-(2-(2-methoxyethoxy)ethoxy)-1-methyl-1H-indole-2-carboxylic acid] | 300 | < 0.2 | –
Cc1cc(OCCCc2c3n(c4c(-c5c(C)nn(C)c5C)c(Cl)ccc24)[C@H](C)CN(c2cc(C(=O)O)nc4ccccc24)C3=O)cc(C)c1Cl [Example 669, (R)-4-(7-chloro-10-(3-(4-chloro-3,5-dimethylphenoxy)propyl)-4-methyl-1-oxo-6-(1,3,5-trimethyl-1H-pyrazol-4-yl)-3,4-dihydropyrazino[1,2-a]indol-2(1H)-yl)quinoline-2-carboxylic acid] | 7600 | 1 | –
Cc1cc(N2C[C@@H](C)n3c(c(CCCOc4cc(C)c(Cl)c(C)c4)c4ccc(Cl)c(-c5c(C)nn(C)c5C)c43)C2=O)c2c(c1)cc(C(=O)O)n2Cc1cc(N2CCN(C)CC2)ccn1 [Example 515, (R)-7-(7-Chloro-10-(3-(4-chloro-3,5-dimethylphenoxy)propyl)-4-methyl-1-oxo-6-(1,3,5-trimethyl-1H-pyrazol-4-yl)-3,4-dihydropyrazino[1,2-a]indol-2(1H)-yl)-5-methyl-1-((4-(4-methylpiperazin-1-yl)pyridin-2-yl)methyl)-1H-indole-2-carboxylic acid] | 610 | < 0.2 | –
Cc1nnn(-c2ccc3c(n2)c(N2C[C@@H](C)n4c(c(CCCOc5cc(C)c(Cl)c(C)c5)c5ccc(Cl)c(-c6c(C)nn(C)c6C)c54)C2=O)cn3C)n1 [Example 684, (R)-7-Chloro-10-(3-(4-chloro-3,5-dimethylphenoxy)propyl)-4-methyl-2-(1-methyl-5-(5-methyl-2H-tetrazol-2-yl)-1H-pyrrolo[3,2-b]pyridin-3-yl)-6-(1,3,5-trimethyl-1H-pyrazol-4-yl)-3,4-dihydropyrazino[1,2-a]indol-1(2H)-one] | 520 | 0.6 | –
Cc1cc(OCCCc2c3n(c4c(-c5c(C)nn(C)c5C)c(Cl)ccc24)[C@H](C)CN(c2cn(CCN4CCN(C)CC4)c4ccc(-c5ncn(C)n5)cc24)C3=O)cc(C)c1Cl [Example 526, (R)-7-Chloro-10-(3-(4-chloro-3,5-dimethylphenoxy)propyl)-4-methyl-2-(5-(1-methyl-1H-1,2,4-triazol-3-yl)-1-(2-(4-methylpiperazin-1-yl)ethyl)-1H-indol-3-yl)-6-(1,3,5-trimethyl-1H-pyrazol-4-yl)-3,4-dihydropyrazino[1,2-a]indol-1(2H)-one] | < 200 | < 0.2 | –
